Laboratory results: US4950647A, “T cell immunopotentiator” (Nucleic Acid Research Institute, priority 1988, dated 1990)
Like-named read-outs stand apart in the source and are kept apart here.

Assays:
[1] = system: lymphocytes (peripheral blood mononuclear cells); test: Pokeweed mitogen (PWM) induced lymphocyte proliferation; type: cell-based, human; design: 3H-thymidine incorporation: unit not given here
Experimental: Peripheral blood mononuclear cells were isolated from heparinized peripheral blood of normal healthy donors as described in Sharma, B. and S. Gupta, "Antigen-specific primary cytotoxic T lymphocyte response in acquired immune deficiency syndrome (AIDS) and AIDS related complex", Clin. Exp. Immunol., 62:296, 1985. Briefly, blood was diluted 1:1 with Hanks balanced salt solution (HBSS). Peripheral blood mononuclear cells were separated on a Ficoll-Hypaque gradient. The peripheral blood mononuclear cells recovered from the interface were washed three times with HBSS and resuspended in RPMI-1640 containing 100 U/ml penicillin, 100 μg/ml streptomycin 2mM L-glutamine (GIBCO, Grand Island, N.Y.), and 10% heat-inactivated pooled A serum (Irvine Scientific, Irvine, Calif.), hereafter referred as complete medium (CM). […] T. Terasaki, "Effect of water soluble adjuvants on in vitro lymphocyte immunization", Cancer Res. 35:666, 1975. […] The culture were set up in quadruplicate and pulsed with [^3 H]-thymidine for 16 hr and the [^3 H] thymidine incorporation was determined.

[2] = system: T lymphocytes (peripheral blood mononuclear cells); test: Cyclosporin A induced suppression of lymphocyte response to Concanavalin A, and its restoration; type: cell-based, human; details: FIG. 4; Con A
Experimental: Briefly, blood was diluted 1:1 with Hanks balanced salt solution (HBSS). Peripheral blood mononuclear cells were separated on a Ficoll-Hypaque gradient.
Cultures were pulsed for 16 hr and [^3 H]-thymidine incorporation was measured.
Peripheral blood mononuclear cells from normal donors were incubated with T cell mitogens in the presence and absence of this compound and then [^3 H-thymidine incorporation was measured.
Lymphocytes proliferation was determined by ^3 H-thymidine incorporation.

[3] = system: human lymphocytes (peripheral blood mononuclear cells); test: Phytohemagglutinin (PHA) induced lymphocyte proliferation; type: cell-based
Experimental: Peripheral blood mononuclear cells were isolated from heparinized peripheral blood of normal healthy donors as described in Sharma, B. and S. Gupta, "Antigen-specific primary cytotoxic T lymphocyte response in acquired immune deficiency syndrome (AIDS) and AIDS related complex", Clin. Exp. Immunol., 62:296, 1985. Briefly, blood was diluted 1:1 with Hanks balanced salt solution (HBSS). Peripheral blood mononuclear cells were separated on a Ficoll-Hypaque gradient. The peripheral blood mononuclear cells recovered from the interface were washed three times with HBSS and resuspended in RPMI-1640 containing 100 U/ml penicillin, 100 μg/ml streptomycin 2mM L-glutamine (GIBCO, Grand Island, N.Y.), and 10% heat-inactivated pooled A serum (Irvine Scientific, Irvine, Calif.), hereafter referred as complete medium (CM).
The ability of the compound 6-amino-(2-deoxy-α-D-erythropentofuranosyl)-imidazo[4,5,-C]pyridin-4-one to modulate lymphocyte response to plant mitogens was determined by the modified procedure of Sharma, B., O. Kohashi, M. R. Mickey, and P. T. Terasaki, "Effect of water soluble adjuvants on in vitro lymphocyte immunization", Cancer Res. 35:666, 1975. Peripheral blood mononuclear cells were cultured for 72-96 hr with phytohemagglutinin (Difco, Detroit, Mich.), Concanavalin A (Calbiochem, Calif.) or Pokeweed mitogen (GIBCO, Grand Island, N.Y.) in the presence and absence of 6-amino-(2-deoxy-α-D-erythro-pentofuranosyl)-imidazo[4,5,-C]pyridin- 4-one. The culture were set up in quadruplicate and pulsed with [^3 H]-thymidine for 16 hr and the [^3 H] thymidine incorporation was determined.
Lymphocytes from different donors where incubated with various concentration of phytohemagglutinin in absence and presence of 6-amino-(2-deoxy-α-D-erythro-pentofuranoxyl)imidazo-[4,5,-C]pyridin- 4-one.
[…] Lymphocyte proliferation was determined by ^3 H-thymidine incorporation.

[4] = donor 2, PHA 0.25 mg/0.2 ml, compound (0.1)
[5] = donor 2, PHA 1.0 mg/0.2 ml, compound (0.05)
[6] = donor 2, PHA 4.0 mg/0.2 ml, compound (0.038)
[7] = donor 3, PHA 0.25 mg/0.2 ml, compound (0.4)
[8] = donor 3, PHA 1.0 mg/0.2 ml, compound (0.2)
[9] = donor 3, PHA 1.0 mg/0.2 ml, compound (0.4)
[10] = donor 3, PHA 4.0 mg/0.2 ml, compound (0.2)
[11] = donor 3, PHA 4.0 mg/0.2 ml, compound (0.4)
[12] = donor 4, PHA 0.25 mg/0.2 ml, compound (0.4)
[13] = donor 4, PHA 1.0 mg/0.2 ml, compound (0.05)
[14] = donor 4, PHA 1.0 mg/0.2 ml, compound (0.4)
[15] = donor 4, PHA 4.0 mg/0.2 ml, compound (0.4)
[16] = donor 5, PHA 0.5 mg/0.2 ml, compound (0.05)
[17] = donor 5, PHA 1.0 mg/0.2 ml, compound (0.2)
[18] = donor 5, PHA 4.0 mg/0.2 ml, compound (0.2)
[19] = donor 6, PHA 0.5 mg/0.2 ml, compound (0.05)
[20] = donor 7, PHA 0.125 mg/0.2 ml, compound (0.4)
[21] = donor 7, PHA 0.125 mg/0.2 ml, compound (1.0)

Nc1cc2c(ncn2[C@@H]2C[C@H](O)[C@@H](CO)O2)c(O)n1 [Test Compound, 6-amino-1-(2-deoxy-α-D-erythro-pentofuranosyl)imidazo[4,5-C]-pyridin-4-one]
maximum increase of Pokeweed mitogen induced proliferation [1]: 18%
activation at 6 µM ([1]; Homo sapiens, Lymphocyte, donor 1, control 53384, 0.006 mM, read-out: % Increase (+)): 18%
activation at 25 µM ([1]; Homo sapiens, Lymphocyte, donor 1, control 53384, 0.025 mM, read-out: % Increase (+)): 8%
activation at 6 µM ([1]; Homo sapiens, Lymphocyte, donor 1, second control 58731, 0.006 mM, read-out: % Increase (+)): 4%
activation at 6 µM ([1]; Homo sapiens, Lymphocyte, donor 4, 0.006 mM, read-out: % Increase (+)): 4%
inhibition at 50 µM ([1]; Homo sapiens, PBMC, donor 1, control 53384, 0.05 mM, read-out: % Decrease (-)): 14%
inhibition at 25 µM ([1]; Homo sapiens, PBMC, donor 1, second control 58731, 0.025 mM, read-out: % Decrease (-)): 1%
inhibition at 50 µM ([1]; Homo sapiens, PBMC, donor 1, second control 58731, 0.05 mM, read-out: % Decrease (-)): 7%
inhibition at 25 µM ([1]; Homo sapiens, PBMC, donor 2, 0.025 mM, read-out: % Decrease (-)): 19%
inhibition at 50 µM ([1]; Homo sapiens, PBMC, donor 2, 0.05 mM, read-out: % Decrease (-)): 19%
inhibition at 125 µM ([1]; Homo sapiens, PBMC, donor 2, 0.125 mM, read-out: % Decrease (-)): 16%
inhibition at 6 µM ([1]; Homo sapiens, PBMC, donor 3, 0.006 mM, read-out: % Decrease (-)): 4%
inhibition at 25 µM ([1]; Homo sapiens, PBMC, donor 3, 0.025 mM, read-out: % Decrease (-)): 22%
inhibition at 200 µM ([1]; Homo sapiens, PBMC, donor 3, 0.2 mM, read-out: % Decrease (-)): 27%
inhibition at 25 µM ([1]; Homo sapiens, PBMC, donor 4, 0.025 mM, read-out: % Decrease (-)): 11%
inhibition at 50 µM ([1]; Homo sapiens, PBMC, donor 4, 0.05 mM, read-out: % Decrease (-)): 18%
3H-thymidine incorporation ([1]; donor 1, control 53384, 0.006 mM): 62772 ± 2781
3H-thymidine incorporation ([1]; donor 1, control 53384, 0.025 mM): 56449 ± 2090
3H-thymidine incorporation ([1]; donor 1, control 53384, 0.05 mM): 45844 ± 1152
3H-thymidine incorporation ([1]; donor 1, second control 58731, 0.006 mM): 61100 ± 4701
3H-thymidine incorporation ([1]; donor 1, second control 58731, 0.025 mM): 57852 ± 3166
3H-thymidine incorporation ([1]; donor 1, second control 58731, 0.05 mM): 54840 ± 942
3H-thymidine incorporation ([1]; donor 2, 0.025 mM): 67565 ± 5857
3H-thymidine incorporation ([1]; donor 2, 0.05 mM): 67429 ± 3657
3H-thymidine incorporation ([1]; donor 2, 0.125 mM): 70197 ± 5940
3H-thymidine incorporation ([1]; donor 3, 0.006 mM): 40425 ± 1158
3H-thymidine incorporation ([1]; donor 3, 0.025 mM): 32818 ± 4806
3H-thymidine incorporation ([1]; donor 3, 0.2 mM): 30453 ± 2974
3H-thymidine incorporation ([1]; donor 4, 0.006 mM): 39090 ± 4853
3H-thymidine incorporation ([1]; donor 4, 0.025 mM): 33122 ± 4539
3H-thymidine incorporation ([1]; donor 4, 0.05 mM): 30500 ± 2132
suppressive effect on Pokeweed mitogen induced proliferation ([1]; especially at relatively higher concentrations): generally a suppressive effect
immunopotentiating effect on Pokeweed mitogen induced proliferation ([1]; listed as 6-Amino-(2-deoxy-α-D-erythro-pentofuranosyl)-imidazo[4,5,-C]pyridin-4-one): did not have any significant immunopotentiating effect
reversal of Cyclosporin A mediated suppression [2]: completely reversed
activity in augmenting phytohemagglutinin response compared with interleukin-2 ([3]; Table III): equals that of interleukin-2
potentiation of lymphocyte response to phytohemagglutinin ([3]; all the 5 donors examined): striking potentiation
3H-thymidine incorporation in PHA-stimulated cultures [3, 4]: 56362 ± 8650 Counts per minute
% Potentiation [3, 4]: 294%
3H-thymidine incorporation in PHA-stimulated cultures [3, 5]: 110155 ± 5101 Counts per minute
% Potentiation [3, 5]: 41%
3H-thymidine incorporation in PHA-stimulated cultures [3, 6]: 127102 ± 3001 Counts per minute
% Potentiation [3, 6]: 53%
3H-thymidine incorporation in PHA-stimulated cultures [3, 7]: 34646 ± 6344 Counts per minute
% Potentiation [3, 7]: 1074%
3H-thymidine incorporation in PHA-stimulated cultures [3, 8]: 77757 ± 18381 Counts per minute
% Potentiation [3, 8]: 295%
3H-thymidine incorporation in PHA-stimulated cultures [3, 9]: 61653 ± 12029 Counts per minute
% Potentiation [3, 9]: 213%
3H-thymidine incorporation in PHA-stimulated cultures [3, 10]: 88518 ± 7387 Counts per minute
% Potentiation [3, 10]: 144%
3H-thymidine incorporation in PHA-stimulated cultures [3, 11]: 97950 ± 6240 Counts per minute
% Potentiation [3, 11]: 170%
3H-thymidine incorporation in PHA-stimulated cultures [3, 12]: 28765 ± 4475 Counts per minute
% Potentiation [3, 12]: 1171%
3H-thymidine incorporation in PHA-stimulated cultures [3, 13]: 50131 ± 4674 Counts per minute
% Potentiation [3, 13]: 88%
3H-thymidine incorporation in PHA-stimulated cultures [3, 14]: 91669 ± 7462 Counts per minute
% Potentiation [3, 14]: 244%
3H-thymidine incorporation in PHA-stimulated cultures [3, 15]: 119811 ± 2608 Counts per minute
% Potentiation [3, 15]: 91%
3H-thymidine incorporation in PHA-stimulated cultures [3, 16]: 66109 ± 2263 Counts per minute
% Potentiation [3, 16]: 71%
3H-thymidine incorporation in PHA-stimulated cultures [3, 17]: 79690 ± 3113 Counts per minute
% Potentiation [3, 17]: 79%
3H-thymidine incorporation in PHA-stimulated cultures [3, 18]: 93966 ± 6505 Counts per minute
% Potentiation [3, 18]: 103%
3H-thymidine incorporation in PHA-stimulated cultures [3, 19]: 16156 ± 3600 Counts per minute
% Potentiation [3, 19]: 110%
3H-thymidine incorporation in PHA-stimulated cultures [3, 20]: 25657 ± 2488 Counts per minute
% Potentiation [3, 20]: 353%
3H-thymidine incorporation in PHA-stimulated cultures [3, 21]: 23582 ± 3903 Counts per minute
% Potentiation [3, 21]: 317%
